Measured values taken from patent publication US10189841B2, “Purinones as ubiquitin-specific protease 1 inhibitors” (Forma Therapeutics, Inc., priority 2015, dated 2019).

These compounds were tested against USP1 (construct USP1 (I-785, GG670, 671AA)/UAF1 (I-677)-Flag) (Homo sapiens (Human), UniProt O94782, G670A/G671A) (assay: Ubiquitin-Rhodamine 110 assay for USP1 activity). Details: USP1/UAF1 25 pM, Ub-Rh110 25 nM, 30 min preincubation.
Format: biochemical
Procedure, shortened: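 Ub-Rh110 (25 nM, ≪Km) cleavage read at ex 485/em 535 in Tris pH 8.0, CaCl2, GSH, Prionex, Triton X-100. The screen used 10 µM compound, 100 pM USP1/UAF1 and 45 min at RT.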

USP1 (construct USP1 (I-785, GG670, 671AA)/UAF1 (I-677)-Flag), sequence (O94782 whole entry G670A/G671A): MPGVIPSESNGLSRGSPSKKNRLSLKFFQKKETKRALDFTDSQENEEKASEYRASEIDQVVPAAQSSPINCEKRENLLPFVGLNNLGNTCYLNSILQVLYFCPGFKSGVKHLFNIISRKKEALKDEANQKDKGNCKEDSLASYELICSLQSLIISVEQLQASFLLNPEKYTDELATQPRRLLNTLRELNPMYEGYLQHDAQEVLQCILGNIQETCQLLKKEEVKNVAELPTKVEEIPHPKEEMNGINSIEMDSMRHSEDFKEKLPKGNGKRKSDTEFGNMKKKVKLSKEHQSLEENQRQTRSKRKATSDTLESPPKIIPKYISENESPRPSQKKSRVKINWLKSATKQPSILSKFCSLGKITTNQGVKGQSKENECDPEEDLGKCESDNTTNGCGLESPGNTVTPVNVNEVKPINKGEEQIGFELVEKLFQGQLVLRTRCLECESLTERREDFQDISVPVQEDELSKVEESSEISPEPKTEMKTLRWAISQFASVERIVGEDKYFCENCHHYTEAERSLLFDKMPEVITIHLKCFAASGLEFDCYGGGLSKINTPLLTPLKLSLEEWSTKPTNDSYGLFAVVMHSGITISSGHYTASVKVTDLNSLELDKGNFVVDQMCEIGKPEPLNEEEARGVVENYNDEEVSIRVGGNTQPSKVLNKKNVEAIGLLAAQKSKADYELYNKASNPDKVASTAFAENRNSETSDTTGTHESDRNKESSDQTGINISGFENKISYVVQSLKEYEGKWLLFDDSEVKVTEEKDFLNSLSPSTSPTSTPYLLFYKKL
USP1 (construct USP1 (I-785, GG670, 671AA)/UAF1 (I-677)-Flag), sequence (Q8TAF3 whole entry partner): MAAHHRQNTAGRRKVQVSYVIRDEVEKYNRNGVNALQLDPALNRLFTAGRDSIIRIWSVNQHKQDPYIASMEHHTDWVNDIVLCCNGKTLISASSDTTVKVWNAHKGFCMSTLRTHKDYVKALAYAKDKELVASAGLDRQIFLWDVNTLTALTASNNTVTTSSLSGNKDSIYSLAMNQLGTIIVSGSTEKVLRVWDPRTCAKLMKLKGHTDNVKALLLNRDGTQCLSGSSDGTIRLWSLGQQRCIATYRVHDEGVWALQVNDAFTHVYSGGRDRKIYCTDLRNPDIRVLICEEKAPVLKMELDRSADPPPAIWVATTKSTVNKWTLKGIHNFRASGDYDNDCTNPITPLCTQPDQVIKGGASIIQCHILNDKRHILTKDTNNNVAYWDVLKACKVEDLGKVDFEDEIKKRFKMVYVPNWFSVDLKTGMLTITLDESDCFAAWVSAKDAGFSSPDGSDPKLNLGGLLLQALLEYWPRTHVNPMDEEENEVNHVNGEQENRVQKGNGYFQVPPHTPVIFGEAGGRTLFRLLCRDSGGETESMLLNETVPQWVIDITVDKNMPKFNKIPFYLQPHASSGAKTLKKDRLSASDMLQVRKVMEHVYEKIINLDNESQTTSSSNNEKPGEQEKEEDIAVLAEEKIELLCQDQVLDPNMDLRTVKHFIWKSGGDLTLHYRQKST

Compound | IC50 [nM]
CC(C)c1ncc(F)cc1-c1ncc2c(n1)n(Cc1ccc(-c3nc(C(F)(F)F)cn3C)cc1)c(=O)n2C [Compound I-69, 2-(5-fluoro-2-isopropylpyridin-3-yl)-7-methyl-9-(4-(1-methyl-4-(trifluoromethyl)-1H-imidazol-2-yl)benzyl)-7,9-dihydro-8H-purin-8-one] | < 50
Cn1cc(C(F)(F)F)nc1-c1ccc(Cn2c(=O)n(C)c3cnc(-c4cccnc4C4CC4)nc32)cc1 [Compound I-71, 2-(2-cyclopropylpyridin-3-yl)-7-methyl-9-(4-(1-methyl-4-(trifluoromethyl)-1H-imidazol-2-yl)benzyl)-7,9-dihydro-8H-purin-8-one] | < 50
Cn1cc(C(F)(F)F)nc1-c1ccc(Cn2c(=O)n(C)c3cnc(-c4cccnc4C(F)F)nc32)cc1 [Compound I-72, 2-(2-(difluoromethyl)pyridin-3-yl)-7-methyl-9-(4-(1-methyl-4-(trifluoromethyl)-1H-imidazol-2-yl)benzyl)-7,9-dihydro-8H-purin-8-one] | 200 to 2000
COc1ccc(-c2ncc3[nH]c(=O)n(Cc4ccc(-c5nc(C(F)(F)F)cn5C)cc4)c3n2)c(C)n1 [Compound I-73, 2-(6-methoxy-2-methylpyridin-3-yl)-9-(4-(1-methyl-4-(trifluoromethyl)-1H-imidazol-2-yl)benzyl)-7,9-dihydro-8H-purin-8-one] | < 50
CC(C)Oc1ccc(-c2ncc3[nH]c(=O)n(Cc4ccc(-c5nc(C(F)(F)F)cn5C)cc4)c3n2)c(F)n1 [Compound I-74, 2-(2-fluoro-6-isopropoxypyridin-3-yl)-9-(4-(1-methyl-4-(trifluoromethyl)-1H-imidazol-2-yl)benzyl)-7,9-dihydro-8H-purin-8-one] | 200 to 2000
COc1ccc(-c2ncc3[nH]c(=O)n(Cc4ccc(-c5nc(C(F)(F)F)cn5C)cc4)c3n2)c(F)n1 [Compound I-75, 2-(2-fluoro-6-methoxypyridin-3-yl)-9-(4-(1-methyl-4-(trifluoromethyl)-1H-imidazol-2-yl)benzyl)-7,9-dihydro-8H-purin-8-one] | 50 to 200
CC(C)c1ncccc1-c1ncc2[nH]c(=O)n(Cc3ccc(-c4nc(C(F)(F)F)cn4C4CC4)cc3)c2n1 [Compound I-76, 9-(4-(1-cyclopropyl-4-(trifluoromethyl)-1H-imidazol-2-yl)benzyl)-2-(2-isopropylpyridin-3-yl)-7,9-dihydro-8H-purin-8-one] | < 50
CC(C)c1ncccc1-c1ncc2[nH]c(=O)n(Cc3ccc(-n4nc(C(F)(F)F)cc4N4CCOCC4)cc3)c2n1 [Compound I-77, 2-(2-isopropylpyridin-3-yl)-9-(4-(5-morpholino-3-(trifluoromethyl)-1H-pyrazol-1-yl)benzyl)-7,9-dihydro-8H-purin-8-one] | < 50
COc1cc(C)n(-c2ccc(Cn3c(=O)[nH]c4cnc(-c5cccnc5C(C)C)nc43)cc2)n1 [Compound I-78, 2-(2-isopropylpyridin-3-yl)-9-(4-(3-methoxy-5-methyl-1H-pyrazol-1-yl)benzyl)-7,9-dihydro-8H-purin-8-one] | < 50
CC(C)c1ncccc1-c1ncc2[nH]c(=O)n([C@H](C)c3ccc(-c4nc(C(F)(F)F)cn4C)cc3)c2n1 [Compound I-79, (R)-2-(2-isopropylpyridin-3-yl)-9-(1-(4-(1-methyl-4-(trifluoromethyl)-1H-imidazol-2-yl)phenyl)ethyl)-7,9-dihydro-8H-purin-8-one] | < 50
CC(C)c1ncccc1-c1ncc2[nH]c(=O)n([C@@H](C)c3ccc(-c4nc(C(F)(F)F)cn4C)cc3)c2n1 [Compound I-80, (S)-2-(2-isopropylpyridin-3-yl)-9-(1-(4-(1-methyl-4-(trifluoromethyl)-1H-imidazol-2-yl)phenyl)ethyl)-7,9-dihydro-8H-purin-8-one] | < 50
CC(C)c1ncccc1-c1ncc2[nH]c(=O)n(Cc3cc(F)c(-c4nc(C(F)(F)F)cn4C)c(F)c3)c2n1 [Compound I-82, 9-(3,5-difluoro-4-(1-methyl-4-(trifluoromethyl)-1H-imidazol-2-yl)benzyl)-2-(2-isopropylpyridin-3-yl)-7,9-dihydro-8H-purin-8-one] | < 50
CC(C)c1ncccc1-c1ncc2[nH]c(=O)n(Cc3ccc(-c4nc(C(F)(F)F)cn4C)c(F)c3)c2n1 [Compound I-83, 9-(3-fluoro-4-(1-methyl-4-(trifluoromethyl)-1H-imidazol-2-yl)benzyl)-2-(2-isopropylpyridin-3-yl)-7,9-dihydro-8H-purin-8-one] | < 50
CC(C)c1ncccc1-c1ncc2[nH]c(=O)n(Cc3ccc(-c4nc(C(F)(F)F)cn4C)cc3F)c2n1 [Compound I-84, 9-(2-fluoro-4-(1-methyl-4-(trifluoromethyl)-1H-imidazol-2-yl)benzyl)-2-(2-isopropylpyridin-3-yl)-7,9-dihydro-8H-purin-8-one] | < 50
CC(C)c1ncccc1-c1ncc2[nH]c(=O)n(Cc3c(F)cc(-c4nc(C(F)(F)F)cn4C)cc3F)c2n1 [Compound I-85, 9-(2,6-difluoro-4-(1-methyl-4-(trifluoromethyl)-1H-imidazol-2-yl)benzyl)-2-(2-isopropylpyridin-3-yl)-7,9-dihydro-8H-purin-8-one] | 50 to 200
Cn1cc(C(F)(F)F)nc1-c1ccc(Cn2c(=O)[nH]c3cnc(-c4ccccc4[S+](C)[O-])nc32)cc1 (stereo not shown) [Compound I-86, 9-(4-(1-methyl-4-(trifluoromethyl)-1H-imidazol-2-yl)benzyl)-2-(2-(methylsulfinyl)phenyl)-7,9-dihydro-8H-purin-8-one] | 200 to 2000

Compound | IC50 [nM]
CC(C)c1ncccc1-c1ncc2[nH]c(=O)n(Cc3ccc(-c4nc(C(F)F)cn4C)cc3)c2n1 [Compound I-87, 9-(4-(4-(difluoromethyl)-1-methyl-1H-imidazol-2-yl)benzyl)-2-(2-isopropylpyridin-3-yl)-7,9-dihydro-8H-purin-8-one] | 50 to 200
O=c1[nH]c2cnc(-c3cccnc3OC(F)F)nc2n1Cc1ccc(-n2ccc(F)n2)cc1 [Compound I-88, 2-(2-(difluoromethoxy)pyridin-3-yl)-9-(4-(3-fluoro-1H-pyrazol-1-yl)benzyl)-7,9-dihydro-8H-purin-8-one] | 200 to 2000
O=c1[nH]c2cnc(-c3ccccc3OC(F)F)nc2n1Cc1ccc(-n2ccc(F)n2)cc1 [Compound I-89, 2-(2-(difluoromethoxy)phenyl)-9-(4-(3-fluoro-1H-pyrazol-1-yl)benzyl)-7,9-dihydro-8H-purin-8-one] | 200 to 2000
CN(C)c1ccccc1-c1ncc2[nH]c(=O)n(Cc3ccc(-c4nc(C(F)(F)F)cn4C)cc3)c2n1 [Compound I-90, 2-(2-(dimethylamino)phenyl)-9-(4-(1-methyl-4-(trifluoromethyl)-1H-imidazol-2-yl)benzyl)-7,9-dihydro-8H-purin-8-one] | < 50
Cc1cccc(-c2ncc3[nH]c(=O)n(Cc4ccc(-n5cccn5)cc4)c3n2)c1C(C)C [Compound I-91, 9-(4-(1H-pyrazol-1-yl)benzyl)-2-(2-isopropyl-3-methylphenyl)-7,9-dihydro-8H-purin-8-one] | < 50
COc1cccc(-c2ncc3[nH]c(=O)n(Cc4ccc(-n5cccn5)cc4)c3n2)c1C(C)C [Compound I-92, 9-(4-(1H-pyrazol-1-yl)benzyl)-2-(2-isopropyl-3-methoxyphenyl)-7,9-dihydro-8H-purin-8-one] | 200 to 2000
CC(C)c1c(Cl)cccc1-c1ncc2[nH]c(=O)n(Cc3ccc(-n4cccn4)cc3)c2n1 [Compound I-93, 9-(4-(1H-pyrazol-1-yl)benzyl)-2-(3-chloro-2-isopropylphenyl)-7,9-dihydro-8H-purin-8-one] | 50 to 200
O=c1[nH]c2cnc(-c3ccccc3C3CC3)nc2n1Cc1ccc(-n2cccn2)cc1 [Compound I-94, 9-(4-(1H-pyrazol-1-yl)benzyl)-2-(2-cyclopropylphenyl)-7,9-dihydro-8H-purin-8-one] | < 50
O=c1[nH]c2cnc(-c3cc(Cl)ccc3C3CC3)nc2n1Cc1ccc(-n2cccn2)cc1 [Compound I-95, 9-(4-(1H-pyrazol-1-yl)benzyl)-2-(5-chloro-2-cyclopropylphenyl)-7,9-dihydro-8H-purin-8-one] | < 50
CC(C)c1cccc(F)c1-c1ncc2[nH]c(=O)n(Cc3ccc(-n4cccn4)cc3)c2n1 [Compound I-96, 9-(4-(1H-pyrazol-1-yl)benzyl)-2-(2-fluoro-6-isopropylphenyl)-7,9-dihydro-8H-purin-8-one] | < 50
O=c1[nH]c2cnc(-c3cc(C(F)(F)F)ccc3C3CC3)nc2n1Cc1ccc(-n2cccn2)cc1 [Compound I-97, 9-(4-(1H-pyrazol-1-yl)benzyl)-2-(2-cyclopropyl-5-(trifluoromethyl)phenyl)-7,9-dihydro-8H-purin-8-one] | 200 to 2000
CCOC(=O)c1cc(C)nn1-c1ccc(Cn2c(=O)[nH]c3cnc(-c4ccccc4C4CC4)nc32)cc1 [Compound I-99, ethyl 1-(4-((2-(2-cyclopropylphenyl)-8-oxo-7,8-dihydro-9H-purin-9-yl)methyl)phenyl)-3-methyl-1H-pyrazole-5-carboxylate] | < 50
Cn1cc(C(F)(F)F)nc1-c1ccc(Cn2c(=O)n(C3CC3)c3cnc(-c4ccccc4C4CC4)nc32)cc1 [Compound I-100, 7-cyclopropyl-2-(2-cyclopropylphenyl)-9-(4-(1-methyl-4-(trifluoromethyl)-1H-imidazol-2-yl)benzyl)-7,9-dihydro-8H-purin-8-one] | < 50
Cn1cc(C(F)(F)F)nc1-c1ccc(Cn2c(=O)n(C3CC3)c3cnc(-c4cccnc4C4CC4)nc32)cc1 [Compound I-101, 7-cyclopropyl-2-(2-cyclopropylpyridin-3-yl)-9-(4-(1-methyl-4-(trifluoromethyl)-1H-imidazol-2-yl)benzyl)-7,9-dihydro-8H-purin-8-one] | < 50
CC(C)c1ccccc1-c1ncc2[nH]c(=O)n(Cc3ccc(-n4ncc5c4CNC5)cc3)c2n1 [Compound I-102, 9-(4-(5,6-dihydropyrrolo[3,4-c]pyrazol-1(4H)-yl)benzyl)-2-(2-isopropylphenyl)-7,9-dihydro-8H-purin-8-one] | 200 to 2000
